{"source": "paper PMC7734336", "about": "“Riproximin Exhibits Diversity in Sugar Binding, and Modulates some Metastasis-Related Proteins with Lectin like Properties in Pancreatic Ductal Adenocarcinoma” (Frontiers in Pharmacology, 2020)", "key": {"[1]": {"molecular_target": "T1, Riproximin (Rpx) (Ximenia americana, UniProt Q2PA54)", "T1 sequence (Q2PA54 53-325 limits assumed)": "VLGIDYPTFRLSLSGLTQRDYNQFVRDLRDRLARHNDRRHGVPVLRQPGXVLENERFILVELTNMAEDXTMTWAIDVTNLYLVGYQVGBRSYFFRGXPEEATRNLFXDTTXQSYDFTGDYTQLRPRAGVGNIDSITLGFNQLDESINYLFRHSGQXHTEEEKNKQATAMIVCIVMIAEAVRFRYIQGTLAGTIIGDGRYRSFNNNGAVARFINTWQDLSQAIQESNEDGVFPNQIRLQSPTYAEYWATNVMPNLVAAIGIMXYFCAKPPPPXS", "T1 sequence (Q2PA54 334-601 limits assumed)": "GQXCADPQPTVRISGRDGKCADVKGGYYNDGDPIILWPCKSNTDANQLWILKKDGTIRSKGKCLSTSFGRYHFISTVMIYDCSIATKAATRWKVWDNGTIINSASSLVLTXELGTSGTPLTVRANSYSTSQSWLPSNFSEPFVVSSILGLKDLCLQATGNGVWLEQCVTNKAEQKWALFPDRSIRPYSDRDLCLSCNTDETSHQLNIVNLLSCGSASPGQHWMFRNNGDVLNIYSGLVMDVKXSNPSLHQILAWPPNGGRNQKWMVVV", "experiment": "1H NMR line broadening and waterLOGSY", "format": "binding", "settings": "298 K; pyranose anomers observed separately in one sample"}, "[2]": {"molecular_target": "T1, Riproximin (Rpx)", "experiment": "waterLOGSY NMR", "format": "binding", "settings": "298 K; pyranose anomers observed separately in one sample"}}, "data": [{"smiles": "C[C@@H]1OC(O)[C@@H](O)[C@H](O)[C@@H]1O", "note": "(mixture of isomers) [L-fucose]", "values": [{"measurement": "1H NMR line broadening and waterLOGSY", "setting": "[1]", "value": "The methyl doublet signals of L-fucose show clear line broadening due to binding to Rpx"}]}, {"smiles": "OC[C@H]1OC(O)[C@H](O)[C@@H](O)[C@H]1O", "note": "(mixture of isomers) [D-galactose]", "values": [{"measurement": "1H NMR line broadening and waterLOGSY", "setting": "[1]", "value": "The affinities of both D-galactose and L-fucose for Rpx were moderate as evident by clear"}]}, {"smiles": "C[C@@H]1OC(O)[C@H](O)[C@H](O)[C@H]1O", "note": "(mixture of isomers) [L-rhamnose]", "values": [{"measurement": "waterLOGSY NMR", "setting": "[2]", "value": "water-LOGSY spectrum confirmed nevertheless the very weak binding of both, the α- and β-anomers of l-rhamnose"}]}]}
